Results taken from ChEMBL document CHEMBL5584333, “Evo312: An Evodiamine Analog and Novel PKCβI Inhibitor with Potent Antitumor Activity in Gemcitabine-Resistant Pancreatic Cancer” (J Med Chem, 2024).
Active and inactive are the calls of the source. The rule behind the calls is not given here.

Key:
[1] = Toxicity in male BALB/c nude mouse at 40 mg/kg, ip; type: organism-based; conditions: in vivo
[2] = system: Gemcitabine-resistant PANC-1; test: Cell cycle distribution in human Gemcitabine-resistant PANC-1 cells assessed as G0-G1 phase cells at 80 nM incubated for 24 hrs by RNase/PI staining based flow cytometric analysis (reference value: 45.21 %); type: functional
[3] = system: Gemcitabine-resistant PANC-1; test: Effect on GSK3beta expression in human Gemcitabine-resistant PANC-1 cells at 40 to 160 nM by Western blot analysis; type: functional, cell-based; conditions: dose 40-160 nM
[4] = biological target: Protein kinase C beta type (Homo sapiens, UniProt P05771); test: Inhibition of PKCbeta1 in human Gemcitabine-resistant PANC-1 cells incubated for 24 hrs; type: cell-based; conditions: dose 40-200 nM
Sequence of Protein kinase C beta type (P05771 2-671 limits assumed): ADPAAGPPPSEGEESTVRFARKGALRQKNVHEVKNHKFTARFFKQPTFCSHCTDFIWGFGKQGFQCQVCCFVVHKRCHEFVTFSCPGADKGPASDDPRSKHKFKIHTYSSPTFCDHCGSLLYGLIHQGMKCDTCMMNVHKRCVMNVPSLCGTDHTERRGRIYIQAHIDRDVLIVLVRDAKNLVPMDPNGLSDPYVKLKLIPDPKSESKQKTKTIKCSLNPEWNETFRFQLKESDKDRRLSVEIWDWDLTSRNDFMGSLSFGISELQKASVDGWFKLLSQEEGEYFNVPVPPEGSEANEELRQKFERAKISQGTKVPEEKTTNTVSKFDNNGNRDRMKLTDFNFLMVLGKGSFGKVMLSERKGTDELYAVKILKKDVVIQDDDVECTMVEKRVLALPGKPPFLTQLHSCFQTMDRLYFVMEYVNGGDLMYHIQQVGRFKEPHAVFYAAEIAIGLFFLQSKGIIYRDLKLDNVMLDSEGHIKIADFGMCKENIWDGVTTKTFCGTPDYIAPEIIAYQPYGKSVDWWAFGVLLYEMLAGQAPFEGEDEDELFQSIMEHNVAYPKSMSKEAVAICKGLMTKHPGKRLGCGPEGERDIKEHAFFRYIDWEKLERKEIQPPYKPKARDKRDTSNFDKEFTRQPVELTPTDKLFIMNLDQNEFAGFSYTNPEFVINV

[5] = Toxicity in male BALB/c nude mouse assessed as animal death at 40 mg/kg, ip; type: organism-based; conditions: in vivo
[6] = system: Gemcitabine-resistant PANC-1; test: Cell cycle distribution in human Gemcitabine-resistant PANC-1 cells assessed as sub-G1 phase cells at 120 nM incubated for 24 hrs by RNase/PI staining based flow cytometric analysis (reference value: 0.30 %); type: functional
[7] = biological target: T1, Signal transducer and activator of transcription 5A (Homo sapiens) (UniProt P42229); test: Inhibition of STAT5 phosphorylation in human Gemcitabine-resistant PANC-1 cells at 160 nM incubated for 24 hrs by phospho-kinase array analysis; type: cell-based
T1 sequence (whole entry): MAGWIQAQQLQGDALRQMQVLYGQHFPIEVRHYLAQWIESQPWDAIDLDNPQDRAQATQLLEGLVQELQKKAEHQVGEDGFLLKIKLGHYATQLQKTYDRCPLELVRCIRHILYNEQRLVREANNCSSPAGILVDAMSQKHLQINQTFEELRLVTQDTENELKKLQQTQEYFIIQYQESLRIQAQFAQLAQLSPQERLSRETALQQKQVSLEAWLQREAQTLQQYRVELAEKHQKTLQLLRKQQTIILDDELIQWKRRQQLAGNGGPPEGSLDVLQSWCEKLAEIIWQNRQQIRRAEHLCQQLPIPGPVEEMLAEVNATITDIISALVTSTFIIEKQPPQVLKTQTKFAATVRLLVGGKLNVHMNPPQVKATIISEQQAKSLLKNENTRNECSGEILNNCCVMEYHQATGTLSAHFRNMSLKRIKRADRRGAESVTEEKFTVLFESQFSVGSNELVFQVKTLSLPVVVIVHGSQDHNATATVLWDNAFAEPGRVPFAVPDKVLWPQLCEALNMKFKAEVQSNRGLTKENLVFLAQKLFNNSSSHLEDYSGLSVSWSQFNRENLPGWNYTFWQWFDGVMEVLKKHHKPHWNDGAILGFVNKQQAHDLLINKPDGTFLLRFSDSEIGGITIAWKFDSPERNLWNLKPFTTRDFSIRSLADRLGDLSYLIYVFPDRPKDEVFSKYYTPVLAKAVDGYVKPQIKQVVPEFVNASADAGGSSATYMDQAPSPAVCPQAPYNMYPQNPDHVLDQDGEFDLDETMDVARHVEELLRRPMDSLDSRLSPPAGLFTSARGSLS

[8] = biological target: Serine/threonine-protein kinase AKT (Homo sapiens) (UniProt P31751+Q9Y243+P31749); test: Inhibition of Akt phosphorylation in human Gemcitabine-resistant PANC-1 cells at 160 nM incubated for 24 hrs by phospho-kinase array analysis; type: cell-based
Sequence of Serine/threonine-protein kinase AKT (Homo sapiens) (P31749 whole entry, looked up): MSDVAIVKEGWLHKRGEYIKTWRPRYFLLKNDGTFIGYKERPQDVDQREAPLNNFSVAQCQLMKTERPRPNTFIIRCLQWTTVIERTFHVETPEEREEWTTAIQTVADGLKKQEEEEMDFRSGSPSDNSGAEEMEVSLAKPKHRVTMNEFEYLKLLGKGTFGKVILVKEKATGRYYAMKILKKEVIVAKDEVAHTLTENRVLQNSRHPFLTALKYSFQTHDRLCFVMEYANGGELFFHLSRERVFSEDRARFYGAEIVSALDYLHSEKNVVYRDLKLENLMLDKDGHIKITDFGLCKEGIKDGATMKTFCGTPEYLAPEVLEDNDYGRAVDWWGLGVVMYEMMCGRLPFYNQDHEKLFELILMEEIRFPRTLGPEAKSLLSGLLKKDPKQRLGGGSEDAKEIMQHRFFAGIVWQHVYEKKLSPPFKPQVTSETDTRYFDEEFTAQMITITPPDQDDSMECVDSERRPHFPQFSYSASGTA
Sequence of Serine/threonine-protein kinase AKT (Homo sapiens) (P31751 whole entry, looked up): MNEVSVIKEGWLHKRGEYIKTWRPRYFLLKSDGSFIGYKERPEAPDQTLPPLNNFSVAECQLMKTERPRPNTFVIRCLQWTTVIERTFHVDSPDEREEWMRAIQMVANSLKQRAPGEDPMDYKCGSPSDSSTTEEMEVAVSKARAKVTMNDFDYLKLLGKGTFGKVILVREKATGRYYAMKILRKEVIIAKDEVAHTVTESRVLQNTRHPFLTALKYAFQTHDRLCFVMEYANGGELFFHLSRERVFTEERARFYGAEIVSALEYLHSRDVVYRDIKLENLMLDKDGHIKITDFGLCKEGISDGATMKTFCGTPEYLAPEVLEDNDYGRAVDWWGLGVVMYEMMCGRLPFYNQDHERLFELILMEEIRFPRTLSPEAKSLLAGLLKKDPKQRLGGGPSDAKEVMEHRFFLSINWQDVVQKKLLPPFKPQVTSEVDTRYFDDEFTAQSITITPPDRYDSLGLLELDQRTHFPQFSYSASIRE
Sequence of Serine/threonine-protein kinase AKT (Homo sapiens) (Q9Y243 whole entry, looked up): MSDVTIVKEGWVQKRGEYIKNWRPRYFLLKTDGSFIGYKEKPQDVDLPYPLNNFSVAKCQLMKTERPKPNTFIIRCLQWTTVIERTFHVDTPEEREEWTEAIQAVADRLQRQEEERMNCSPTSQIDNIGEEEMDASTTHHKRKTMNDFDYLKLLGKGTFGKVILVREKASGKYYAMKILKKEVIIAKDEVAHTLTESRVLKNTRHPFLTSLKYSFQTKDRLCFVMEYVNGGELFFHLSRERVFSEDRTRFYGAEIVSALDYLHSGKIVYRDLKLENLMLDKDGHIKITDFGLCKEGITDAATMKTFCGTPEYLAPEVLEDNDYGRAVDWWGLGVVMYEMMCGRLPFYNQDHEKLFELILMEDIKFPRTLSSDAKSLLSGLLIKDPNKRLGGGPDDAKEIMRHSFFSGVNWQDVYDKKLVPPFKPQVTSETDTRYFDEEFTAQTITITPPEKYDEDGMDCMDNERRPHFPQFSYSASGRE

[9] = Cytotoxicity against human MRC5 cells assessed as inhibition of cell growth incubated for 72 hrs by SRB assay; type: toxicity, cell-based
[10] = system: Gemcitabine-resistant PANC-1; test: Induction of apoptosis in human Gemcitabine-resistant PANC-1 cells assessed as upregulation of cleaved caspase-3 level at 160 nM incubated for 48 hrs by Western blot analysis; type: functional, cell-based
[11] = system: Gemcitabine-resistant PANC-1; test: Cell cycle distribution in human Gemcitabine-resistant PANC-1 cells assessed as S phase cells at 160 nM incubated for 24 hrs by RNase/PI staining based flow cytometric analysis (reference value: 17.32 %); type: functional
[12] = biological target: Glycogen synthase kinase-3 beta (Homo sapiens) (UniProt P49841); test: Inhibition of GSK3beta phosphorylation in human Gemcitabine-resistant PANC-1 cells at 160 nM incubated for 24 hrs by phospho-kinase array analysis; type: cell-based
Sequence of Glycogen synthase kinase-3 beta (Homo sapiens) (P49841 whole entry, looked up): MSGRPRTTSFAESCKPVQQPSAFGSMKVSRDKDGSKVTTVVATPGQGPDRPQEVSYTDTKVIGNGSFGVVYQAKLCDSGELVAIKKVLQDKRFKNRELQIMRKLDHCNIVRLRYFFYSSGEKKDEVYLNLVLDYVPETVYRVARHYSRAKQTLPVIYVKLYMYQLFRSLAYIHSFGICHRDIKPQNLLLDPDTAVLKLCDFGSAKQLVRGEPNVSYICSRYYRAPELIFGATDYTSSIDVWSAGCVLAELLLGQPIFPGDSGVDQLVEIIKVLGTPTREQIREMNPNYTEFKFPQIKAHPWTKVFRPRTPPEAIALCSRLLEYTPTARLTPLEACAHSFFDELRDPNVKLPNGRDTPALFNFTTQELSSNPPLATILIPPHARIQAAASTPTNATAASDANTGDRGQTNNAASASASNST

[13] = system: Gemcitabine-resistant PANC-1; test: Effect on Akt expression in human Gemcitabine-resistant PANC-1 cells at 40 to 160 nM by Western blot analysis; type: functional, cell-based; conditions: dose 40-160 nM
[14] = biological target: Proline-rich AKT1 substrate 1 (Homo sapiens) (UniProt Q96B36); test: Inhibition of PRAS40 phosphorylation in human Gemcitabine-resistant PANC-1 cells at 160 nM incubated for 24 hrs by phospho-kinase array analysis; type: cell-based
[15] = system: Gemcitabine-resistant PANC-1; test: Cell cycle distribution in human Gemcitabine-resistant PANC-1 cells assessed as sub-G1 phase cells at 80 nM incubated for 24 hrs by RNase/PI staining based flow cytometric analysis (reference value: 0.30 %); type: functional
[16] = system: Gemcitabine-resistant PANC-1; test: Inhibition of p70S6K phosphorylation in human Gemcitabine-resistant PANC-1 cells at 160 nM incubated for 24 hrs by phospho-kinase array analysis; type: cell-based
[17] = system: Gemcitabine-resistant PANC-1; test: Cell cycle distribution in human Gemcitabine-resistant PANC-1 cells assessed as G2/M phase cells at 80 nM incubated for 24 hrs by RNase/PI staining based flow cytometric analysis (reference value: 37.53 %); type: functional
PANC-1 = test: Cytotoxicity against human PANC-1 cells assessed as inhibition of cell growth incubated for 72 hrs by SRB assay; type: functional, cell-based; conditions: PANC-1, 72 h
[18] = Toxicity in male BALB/c nude mouse xenografted with human Gemcitabine-resistant PANC-1 cells assessed as body weight change at 10 mg/kg, ip administered three times in a week for 20 days; type: organism-based; conditions: in vivo, 480 h, time 20 day
[19] = system: Gemcitabine-resistant PANC-1; test: Cell cycle distribution in human Gemcitabine-resistant PANC-1 cells assessed as G0-G1 phase cells at 160 nM incubated for 24 hrs by RNase/PI staining based flow cytometric analysis (reference value: 45.21 %); type: functional
[20] = system: Gemcitabine-resistant PANC-1; test: Induction of apoptosis in human Gemcitabine-resistant PANC-1 cells assessed as upregulation of cleaved caspase-9 level at 160 nM incubated for 48 hrs by Western blot analysis; type: functional, cell-based
[21] = system: Gemcitabine-resistant PANC-1; test: Downregulation of p-STAT5 expression in human Gemcitabine-resistant PANC-1 cells at 40 to 160 nM incubated for 24 hrs by Western blotting; type: functional, cell-based; conditions: dose 40-160 nM
[22] = system: Gemcitabine-resistant PANC-1; test: Cell cycle distribution in human Gemcitabine-resistant PANC-1 cells assessed as sub-G1 phase cells at 40 nM incubated for 24 hrs by RNase/PI staining based flow cytometric analysis (reference value: 0.30 %); type: functional
[23] = system: Gemcitabine-resistant PANC-1; test: Induction of cell cycle arrest in human Gemcitabine-resistant PANC-1 cells assessed as upregulation of cyclin B1 protein expression level at 40 to 160 nM incubated for 24 hrs by Western blot analysis; type: functional, cell-based; conditions: dose 40-160 nM
[24] = system: Gemcitabine-resistant PANC-1; test: Induction of cell cycle arrest in human Gemcitabine-resistant PANC-1 cells assessed as downregulation of Cdc2 protein expression level at 40 to 160 nM incubated for 24 hrs by Western blot analysis; type: functional, cell-based; conditions: dose 40-160 nM
[25] = system: Gemcitabine-resistant PANC-1; test: Induction of apoptosis in human Gemcitabine-resistant PANC-1 cells assessed as total cell death at 160 nM incubated for 48 hrs by Annexin V-FITC/PI staining based flow cytometric analysis relative to control; type: functional

CC(=O)Oc1ccc2[nH]c3c(c2c1)CCN1C(=O)c2ccccc2N(C)[C@H]31
Activity [1]: Non-Toxic
Activity [2]: 34.14%
Activity [3]: inactive
inhibition [4]: Dose-Dependent Effect
Activity [5]: Non-Toxic
Activity [6]: 1.6%
inhibition [7]: Active
inhibition [8]: Active
IC50 at 72 h [9]: > 50 µM
Activity [10]: Active
Activity [11]: 14.05%
inhibition [12]: Active
Activity [13]: inactive
inhibition [14]: Active
Activity [15]: 1.31%
inhibition [16]: Active
Activity [17]: 48.98%
IC50 (PANC-1): ≤ 0.08 µM
Activity [18]: Non-Toxic
Activity [19]: 26.28%
Activity [20]: Active
Activity [21]: Active
Activity [22]: 0.34%
Activity [23]: Active
Activity [24]: Active
Activity [25]: 24.95%
